This note sets out measurements from US12091425B2 (AMGEN INC., priority 2016, dated 2024).

As a reminder, the IC50 is the midpoint of a concentration-inhibition curve.

For experiment [1], the system named is OPM-2 human multiple myeloma cell line. As to the kind of experiment: Cell Viability Assay (OPM-2 10 FBS). The experiment is classed as cell-based. The settings on record: OPM-2 cells, CellTiter-Glo. In short, it runs like this: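 OPM-2 myeloma cells, 3000/well in medium with 10% FBS, exposed to serially diluted compounds for 16 h at 37° C./5% CO2. Viability read by CellTiter-Glo luminescence; IC50 from 4-parameter logistic fit.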
A general note: In ATP-based viability assays light output follows the ATP content of the culture.

For experiment [2], the target named is T1, Mcl-1/Bim interaction, recombinant human Mcl-1 (171-327) (Homo sapiens, UniProt Q07820).
T1 construct: made in house
As to the kind of experiment: Cell free Mcl-1: Bim Affinity Assay (Mcl-1 HTRF). The experiment is classed as binding. In short, it runs like this: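 Displacement of biotinylated Bim 51-76 peptide is followed by TR-FRET. Incubation runs overnight. Duplicate points are fitted with a four-parameter sigmoid to yield IC50.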
(In general: TR-FRET usually uses a lanthanide donor and a delayed reading to cut background.)

[3] abbreviates: Homo sapiens, OPM-2, 16 h, 16 h.
[4] abbreviates: cell free Mcl-1:Bim TR-FRET, recombinant human Mcl-1 (171-327).
Setting [5] is: TR-FRET, 0.1 nM Mcl-1 (171-327), 0.05 nM biotin-Bim (51-76).

T1 sequence (Q07820 171-327): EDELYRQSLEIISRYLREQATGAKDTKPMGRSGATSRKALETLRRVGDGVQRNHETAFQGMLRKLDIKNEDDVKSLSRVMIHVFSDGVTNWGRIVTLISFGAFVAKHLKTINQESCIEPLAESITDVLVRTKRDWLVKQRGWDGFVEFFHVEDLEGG

`COC(=O)CN[C@H]1/C=C/CC[C@@H](C)S(=O)(=O)NC(=O)c2ccc3c(c2)N(C[C@@H]2CC[C@H]21)C[C@@]1(CCCc2cc(Cl)ccc21)CO3` [Example 599, methyl N-((1S,3′R,6′R,7′S,8′E,12′R)-6-chloro-12′-methyl-13′,13′-dioxido-15′-oxo-3,4-dihydro-2H-spiro[naphthalene-1,22′-[20]oxa[13]thia[1,14]diazatetracyclo[14.7.2.0^3,6.0^19,24]pentacosa [8,16,18,24]tetraen]-7′-yl)glycinate-trifluoroacetic Acid]: the concentration for half-maximal inhibition (IC50) in experiment [1] (setting [3]) was 652 nM; in experiment [2] (setting [4]), 1.51 nM.

For `COCC1COCCN1CCOC1C=CCC(C)C(C)S(=O)(=O)NC(=O)c2ccc3c(c2)N(CC2CCC21)CC1(CCCc2cc(Cl)ccc21)CO3` (mixture of isomers) [Example 530], the IC50 in experiment [1] (16 h) was 134 nM; in experiment [2] (setting [4]) it was 0.763 nM.

Take `CCOC(=O)CO[C@H]1/C=C/CC[C@@H](CC(=O)OC)S(=O)(=O)NC(=O)c2ccc3c(c2)N(C[C@@H]2CC[C@H]21)C[C@@]1(CCCc2cc(Cl)ccc21)CO3` [Example 623]: the 50% inhibitory concentration (IC50) in experiment [1] (16 h) amounted to 483 nM; in experiment [2] (setting [4]), 0.642 nM.

For `C[C@@H]1CC/C=C/[C@H](OCCN2CCOCC2)[C@@H]2CC[C@H]2CN2C[C@@]3(CCCc4cc(Cl)ccc43)COc3ccc(cc32)C(=O)NS1(=O)=O` [Example 418, (1S,3′R,6′R,7′S,8′E,12′R)-6-chloro-12′-methyl-7′-(2-(4-morpholinyl)ethoxy)-3,4-dihydro-2H,15′H-spiro[naphthalene-1,22′-[20]oxa[13]thia[1,14]diazatetracyclo[14.7.2.0^3,6.0^19,24]pentacosa [8,16,18,24]tetraen]-15′-one 13′,13′-dioxide], the 50% inhibitory concentration (IC50) in experiment [1] (setting [3]) is 111 nM; in experiment [2] (setting [5]) it was 0.275 nM.

Consider `C[C@@H]1CC/C=C/[C@H](OCC(=O)O)[C@@H]2CC[C@H]2CN2C[C@@]3(CCCc4cc(Cl)ccc43)COc3ccc(cc32)C(=O)NS1(=O)=O` [Example 407, (((1S,3′R,6′R,7′S,8′E,12′R)-6-chloro-12′-methyl-13′,13′-dioxido-15′-oxo-3,4-dihydro-2H-spiro[naphthalene-1,22′-[20]oxa[13]thia[1,14]diazatetracyclo[14.7.2.0^3,6.0^19,24]pentacosa [8,16,18,24]tetraen]-7′-yl)oxy)acetic acid], for which the IC50 in experiment [1] (setting [3]) was 14400 nM; in experiment [2] (setting [5]), 0.127 nM.

Regarding `COC[C@@H](O)C[C@@H]1[C@@H](C)C/C=C/[C@H](O)[C@@H]2CC[C@H]2CN2C[C@@]3(CCCc4cc(Cl)ccc43)COc3ccc(cc32)C(=O)NS1(=O)=O` (single isomer, unassigned) [Example 672], the figures for the IC50 in experiment [1] (16 h) and in experiment [2] (setting [4]) were 286 nM and 0.193 nM, respectively.

For `O=C1NS(=O)(=O)C[C@@H]2C[C@@H]2/C=C/[C@H](O)[C@@H]2CC[C@H]2CN2C[C@@]3(CCCc4cc(Cl)ccc43)COc3ccc1cc32` (single isomer, unassigned) [Example 784], the 50% inhibitory concentration (IC50) is 14200 nM in experiment [1] (16 h) and 2.69 nM in experiment [2] (setting [4]).

As to `COCCOCCOCCO[C@H]1/C=C/C[C@H](C)[C@@H](C)S(=O)(=O)NC(=O)c2ccc3c(c2)N(C[C@@H]2CC[C@H]21)C[C@@]1(CCCc2cc(Cl)ccc21)CO3` [Example 378, (1S,3′R,6′R,7′S,8′E,11′S,12′R)-6-chloro-7′-(2-(2-(2-methoxyethoxy)ethoxy)ethoxy)-11′,12′-dimethyl-3,4-dihydro-2H,15′H-spiro[naphthalene-1,22′-[20]oxa[13]thia[1,14]diazatetracyclo[14.7.2.0^3,6.0^19,24]pentacosa[8,16,18,24]tetraen]-15′-one 13′,13′-dioxide], the IC50 in experiment [1] (setting [3]) turned out to be 140 nM; in experiment [2] (setting [5]) it was 0.24 nM.

On to `O=C1NS(=O)(=O)N(Cc2ncco2)CC/C=C/[C@H](O)[C@@H]2CC[C@H]2CN2C[C@@]3(CCCc4cc(Cl)ccc43)COc3ccc1cc32` [Example 694, (1S,3′R,6′R,7′S,8′E)-6-chloro-7′-hydroxy-12′-(1,3-oxazol-2-ylmethyl)-3,4-dihydro-2H,15′H-spiro[naphthalene-1,22′-[20]oxa[13]thia[1,12,14]triazatetracyclo[14.7.2.0^3,6.0^19,24]pentacosa[8,16,18,24]tetraen]-15′-one 13′,13′-dioxide], for which the 50% inhibitory concentration (IC50) in experiment [1] (setting [3]) was determined as 968 nM; in experiment [2] (setting [4]), 0.763 nM.

On to `C[C@H]1/C=C/[C@H](O)[C@@H]2CC[C@H]2CN2C[C@@]3(CCCc4cc(Cl)ccc43)COc3ccc(cc32)C(=O)NS(=O)(=O)C1` (single isomer, unassigned) [Example 164], for which the 50% inhibitory concentration (IC50) in experiment [1] (16 h) is 21900 nM; in experiment [2] (setting [5]) it was 1.44 nM.

As to `O=C1NS(=O)(=O)[C@@H]2CCC[C@@H](CC[C@H](O)[C@@H]3CC[C@H]3CN3C[C@@]4(CCCc5cc(Cl)ccc54)COc4ccc1cc43)C2` (single isomer, unassigned) [Example 107], the IC50 worked out at 17300 nM in experiment [1] (16 h) and 0.597 nM in experiment [2] (setting [5]).

On to `CC[C@@H]1CCCC[C@H](OCC(=O)OC)[C@@H]2CC[C@H]2CN2C[C@@]3(CCCc4cc(Cl)ccc43)COc3ccc(cc32)C(=O)NS1(=O)=O` [Example 993, methyl (((1S,3′R,6′R,7′S,12′R)-6-chloro-12′-ethyl-13′,13′-dioxido-15′-oxo-3,4-dihydro-2H-spiro[naphthalene-1,22′-[20]oxa[13]thia[1,14]diazatetracyclo[14.7.2.0^3,6.0^19,24]pentacosa [16,18,24]trien]-7′-yl)oxy)acetate], for which the IC50 in experiment [1] (Homo sapiens, OPM-2, 16 h, 16 h incubation) worked out at 373 nM; in experiment [2] (setting [5]), 2.01 nM.

As to `CNC(=O)CO[C@H]1/C=C/C[C@H](C)[C@@H](C)S(=O)(=O)NC(=O)c2ccc3c(c2)N(C[C@@H]2CC[C@H]21)C[C@@]1(CCCc2cc(Cl)ccc21)CO3` [Example 294, 2-(((1S,3′R,6′R,7′S,8′E,11′S,12′R)-6-chloro-11′,12′-dimethyl-13′,13′-dioxido-15′-oxo-3,4-dihydro-2H-spiro[naphthalene-1,22′-[20]oxa[13]thia[1,14]diazatetracyclo[14.7.2.0^3,6.0^19,24]pentacosa [8,16,18,24]tetraen]-7′-yl)oxy)-N-methylacetamide], the 50% inhibitory concentration (IC50) in experiment [1] (setting [3]) was determined as 410 nM; in experiment [2] (setting [5]), 0.255 nM.

Consider `Cc1noc(C)c1CO[C@H]1/C=C/CC[C@@H](C)S(=O)(=O)NC(=O)c2ccc3c(c2)N(C[C@@H]2CC[C@H]21)C[C@@]1(CCCc2cc(Cl)ccc21)CO3` [Example 409, (1S,3′R,6′R,7′S,8′E,12′R)-6-chloro-7′-((3,5-dimethyl-4-isoxazolyl)methoxy)-12′-methyl-3,4-dihydro-2H,15′H-spiro[naphthalene-1,22′-[20]oxa[13]thia[1,14]diazatetracyclo[14.7.2.0^3,6.0^19,24]pentacosa [8,16,18,24]tetraen]-15′-one 13′,13′-dioxide], for which the IC50 in experiment [1] (setting [3]) was found to be 751 nM; in experiment [2] (setting [5]) it was 1.27 nM.

For `C[C@@H](O)C[C@@H]1CC/C=C/[C@H](O)[C@@H]2CC[C@H]2CN2C[C@@]3(CCCc4cc(Cl)ccc43)COc3ccc(cc32)C(=O)NS1(=O)=O` (single isomer, unassigned) [Example 544], the IC50 was 1520 nM in experiment [1] (16 h) and 0.193 nM in experiment [2] (setting [4]).

Turning to `C[C@@H]1CC/C=C/[C@H](OC[C@H](O)CO)[C@@H]2CC[C@H]2CN2C[C@@]3(CCCc4cc(Cl)ccc43)COc3ccc(cc32)C(=O)NS1(=O)=O` (mixture of isomers) [Example 415], the IC50 in experiment [1] (setting [3]) amounted to 2640 nM; in experiment [2] (setting [5]), 0.276 nM.

For `C[C@@H]1[C@@H](C)C/C=C/[C@H](OCC(=O)N(C)CCN(C)C)[C@@H]2CC[C@H]2CN2C[C@@]3(CCCc4cc(Cl)ccc43)COc3ccc(cc32)C(=O)NS1(=O)=O` [Example 300, 2-(((1S,3′R,6′R,7′S,8′E,11′S,12′R)-6-chloro-11′,12′-dimethyl-13′,13′-dioxido-15′-oxo-3,4-dihydro-2H-spiro[naphthalene-1,22′-[20]oxa[13]thia[1,14]diazatetracyclo[14.7.2.0^3,6.0^19,24]pentacosa [8,16,18,24]tetraen]-7′-yl)oxy)-N-(2-(dimethylamino)ethyl)-N-methylacetamide], the values for the half-inhibitory concentration (IC50) in experiment [1] (setting [3]) and in experiment [2] (setting [5]) were 817 nM and 0.24 nM, respectively.

For the compound `C[C@@]12C/C=C/[C@H](O)[C@@H]3CC[C@H]3CN3C[C@@]4(CCCc5cc(Cl)ccc54)COc4ccc(cc43)C(=O)NS(=O)(=O)[C@H]1CCC2` (single isomer, unassigned) [Example 130], the results for the 50% inhibitory concentration (IC50) in experiment [1] (16 h) and in experiment [2] (setting [5]) were 228 nM and 0.386 nM, respectively.

Consider `C[C@@H]1[C@@H](C)C/C=C/[C@H](O[C@@H]2CCOC2=O)[C@@H]2CC[C@H]2CN2C[C@@]3(CCCc4cc(Cl)ccc43)COc3ccc(cc32)C(=O)NS1(=O)=O` (single isomer, unassigned) [Example 428], for which the figures for the IC50 in experiment [1] (setting [3]) and in experiment [2] (setting [5]) were 176 nM and 0.333 nM, respectively.

For the compound `COC(=O)CN(CC(=O)OC)[C@H]1/C=C/CC[C@@H](C)S(=O)(=O)NC(=O)c2ccc3c(c2)N(C[C@@H]2CC[C@H]21)C[C@@]1(CCCc2cc(Cl)ccc21)CO3` [Example 600, dimethyl 2,2′-(((1S,3′R,6′R,7′S,8′E,12′R)-6-chloro-12′-methyl-13′,13′-dioxido-15′-oxo-3,4-dihydro-2H-spiro[naphthalene-1,22′-[20]oxa[13]thia[1,14]diazatetracyclo[14.7.2.0^3,6.0^19,24]pentacosa [8,16,18,24]tetraen]-7′-yl)imino)diacetate-trifluoroacetic Acid], the IC50 in experiment [1] (setting [3]) is 104 nM; in experiment [2] (setting [4]), 0.647 nM.

On to `CN(C)S(=O)(=O)N1CCN(C(=O)C[C@@H]2CC/C=C/[C@H](O)[C@@H]3CC[C@H]3CN3C[C@@]4(CCCc5cc(Cl)ccc54)COc4ccc(cc43)C(=O)NS2(=O)=O)CC1` (single isomer, unassigned) [Example 631], for which the IC50 in experiment [1] (16 h) came to 2530 nM; in experiment [2] (setting [4]), 0.298 nM.
